# Values quoted from earlier work, collected in US20210115493A1, “METHODS FOR DETERMINING A DRUG DOSING REGIMEN” (Clear Creek Bio, Inc., priority 2019, published 2021).
# Experiments:
# [1] = test system: mouse model of AML
# [2] = test system: solid tumor malignancies; settings: administered over a 5-day period followed by a 3-week gap, or once per week for three weeks followed by a 1-week gap
smiles,measurement,setting,value
"Cc1c(-c2ccc(-c3ccccc3F)cc2)nc2ccc(F)cc2c1C(=O)O [brequinar, 6-fluoro-2-(2′-fluoro-1,1′biphenyl-4-yl)-3-methyl-4-quinoline carboxylic acid]",adverse effects of daily administration of high doses,[1],"weight loss, anemia, and thrombocytopenia"
same,efficacy in treatment of solid tumor malignancies,[2],ineffective
